From the supplement of paper PMC10307832

How the values were obtained:
Experiment in all cases: relative viability (nuclei count vs DMSO), 5 days (fraction); higher = more cells survive
BGJ398 + Lapatinib = compound: CCN1CCN(c2ccc(Nc3cc(N(C)C(=O)Nc4c(Cl)c(OC)cc(OC)c4Cl)ncn3)cc2)CC1 [BGJ398] + CS(=O)(=O)CCNCc1ccc(-c2ccc3ncnc(Nc4ccc(OCc5cccc(F)c5)c(Cl)c4)c3c2)o1 [Lapatinib] (partner 2 µM)
Summary of the method: (§1)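 Relative viability was taken as the ratio of nuclei in treated wells to nuclei in vehicle wells. Lung cancer cell lines in 1536-well plates received compounds by pin tool one day after seeding, either one drug alone or a fixed anchor-drug dose plus five library-drug doses (not always all listed) in √10 steps. Nuclei were counted on 4× images after 5 days of treatment, and values are medians of duplicate plates.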

[1] = compound: C1=CC2=NC=CN=C2C=C1/C=C/3\C(=O)NC(=O)S3 + CS(=O)(=O)N1CCN(Cc2cc3nc(-c4cccc5[nH]ncc45)nc(N4CCOCC4)c3s2)CC1 [Pictilisib] (partner 1 µM)
Summary of the method: as §1

[2] = compound: C1=CC2=NC=CN=C2C=C1/C=C/3\C(=O)NC(=O)S3 + CS(=O)(=O)CCNCc1ccc(-c2ccc3ncnc(Nc4ccc(OCc5cccc(F)c5)c(Cl)c4)c3c2)o1 [Lapatinib] (partner 2 µM)
Summary of the method: as §1

BGJ398 + Alpelisib = compound: CCN1CCN(c2ccc(Nc3cc(N(C)C(=O)Nc4c(Cl)c(OC)cc(OC)c4Cl)ncn3)cc2)CC1 [BGJ398] + Cc1nc(NC(=O)N2CCC[C@H]2C(N)=O)sc1-c1ccnc(C(C)(C)C(F)(F)F)c1 [Alpelisib] (partner 2 µM)
Summary of the method: as §1

Cell Line	relative viability (BGJ398 + Lapatinib; first compound 0.01 µM)	relative viability (BGJ398 + Lapatinib; first compound 0.03162 µM)	relative viability (BGJ398 + Lapatinib; first compound 0.1 µM)	relative viability (BGJ398 + Lapatinib; first compound 0.3162 µM)	relative viability (BGJ398 + Lapatinib; first compound 1 µM)	relative viability ([1]; first compound 0.02 µM)	relative viability ([1]; first compound 0.06325 µM)	relative viability ([1]; first compound 0.2 µM)	relative viability ([1]; first compound 0.6325 µM)	relative viability ([1]; first compound 2 µM)	relative viability ([2]; first compound 0.02 µM)	relative viability ([2]; first compound 0.06325 µM)	relative viability ([2]; first compound 0.2 µM)	relative viability ([2]; first compound 0.6325 µM)	relative viability ([2]; first compound 2 µM)	relative viability (BGJ398 + Alpelisib; first compound 0.01 µM)	relative viability (BGJ398 + Alpelisib; first compound 0.03162 µM)	relative viability (BGJ398 + Alpelisib; first compound 0.1 µM)	relative viability (BGJ398 + Alpelisib; first compound 0.3162 µM)	relative viability (BGJ398 + Alpelisib; first compound 1 µM)
LOU-NH91	0.733	0.771	0.731	0.727	0.688	0.528	0.535	0.535	0.498	0.484	0.734	0.786	0.81	0.739	0.585	0.727	0.531	0.717	0.491	0.697
NCI-H3122	0.97	1.03	1.03	1.07	1.08	0.697	0.487	0.578	0.547	0.364	1.09	1.03	1.04	0.988	0.972	0.835	0.844	0.763	0.717	0.832
NCI-H460	1.02	1.05	1.6	1	1.23	0.376	0.281	0.338	0.324	0.199	0.832	1.15	1.03	0.815	0.689	0.47	0.594	0.574	0.566	0.422
NCI-H650	0.809	0.906	0.837	0.841	0.597	0.816	0.829	0.917	0.868	0.783	1.13	1.1	1.09	0.835	0.5	1.05	1.2	1.33	1.19	1.1
NCI-H661	0.501	0.595	0.473	0.457	0.49	0.392	0.436	0.513	0.378	0.329	0.46	0.495	0.464	0.45	0.39	0.594	1.08	0.715	0.526	0.614
NCI-H1793	0.652	–	0.564	0.402	0.427	0.344	0.395	0.328	0.294	0.263	0.702	0.532	0.832	0.725	0.773	0.676	–	0.955	0.696	0.549
NCI-H1734	0.992	1.03	1.11	0.961	1.06	0.426	–	0.509	0.421	0.274	1.02	–	1.11	0.999	0.756	0.678	0.654	0.725	0.676	0.742
LXF-289	0.827	0.85	0.817	0.77	0.7	0.723	0.843	0.801	0.771	0.635	0.829	0.932	0.883	0.857	0.908	0.983	1.03	1.02	0.957	0.947
